Experimental data taken from patent publication US20240269155A1, “METHODS AND USES OF BORON COMPOUNDS IN THE TREATMENT OF NONTUBERCULOUS MYCOBACTERIUM INFECTIONS AND PHARMACEUTICAL COMPOSITIONS FOR TREATMENT OF SAME” (priority 2022, published 2024).
Like-named read-outs stand apart in the source and are kept apart here.

Legend:
M. peregrinum = assay: MIC determination (CLSI M24-A2); format: cell-based, Mycobacterium peregrinum
Experimental: (§1) The in vitro activity of the parent boron compound described herein was assessed by standard testing procedures such as the determination of minimum inhibitory concentration (MIC) as described in Clinical and Laboratory Standards Institute (CLSI) document M24-A2. Lower MIC values indicate high antibacterial activity, while higher MIC values indicate a reduced antibacterial activity. Generally, MIC values of about ≤2 mg/L indicate a good therapeutic (i.e., suitable for therapy) potency for antibacterial drugs, while MIC values of ≥8 mg/L indicate a lack of therapeutically useful activity for a test compound.
(§2) (MIC ranges from 0.063-2 mg/L).

[1] = tested on: clinical isolates of M. abscessus complex; assay: MIC against clinical isolates of M. abscessus complex; format: cell-based, M. abscessus and M. massiliense
[2] = Lung distribution study in mouse; format: in vivo, Balb/C mouse; conditions: 10 mg/kg iv
M. smegmatis = assay: MIC determination (CLSI M24-A2); format: cell-based, Mycobacterium smegmatis
Experimental: as §1, §2

M. abscessus CIP108297 = assay: M. abscessus mouse lung infection model; format: in vivo, BALB/c mice
Experimental: To establish the efficacy of the compounds described herein in vivo, an M. abscessusmouse lung infection model was performed. Groups of BALB/c mice (The mice were randomly divided into groups with 6 mice in each group) were administered cyclophosphamide one week before infection, and then inoculated intranasally with M. abscessus CIP108297 (10^7 CFU/mouse). Three days after infection, the mice were subsequently treated with 10 mg/kg of the compound of Example 4 or GSK656 administered daily by subcutaneous, or 100 mg/kg linezolid (an approved antibiotic) or 200 mg/kg clarithromycin (an approved antibiotic) administered daily by oral gavage. […] This may be attributed to the surprising finding of lower MBC in the compound of Example 4.

[3] = Rat PK model, intravenous or oral gavage; format: in vivo, SD rats; conditions: 5 mg/kg, parent compound Example 4 quantified
Text: To further elucidate the therapeutic potential of drug compounds, pharmacokinetic (PK) data is often used to establish key parameters predictive of a therapy outcome, such as the area under the curve (AUC) of a plot monitoring the change in systemic drug concentration over time. A higher AUC value indicates a greater exposure to the drug, commonly associated with a greater therapeutic potential due to a higher amount of drug available to combat the infection. In contrast, a lower AUC value indicates a reduced exposure to the drug, resulting in a reduced amount of antibiotic available to combat bacterial infections. To that end, the compounds described herein were tested in the rat PK model of oral administration performed analogously to the methods described in the monograph Current Protocols in Pharmacology, 2005, 7.1.1-7.1.26, John Wiley & Sons, Inc.
All the compounds were administered to SD rats (The rats were randomly divided into groups with 3 rats in each group) by intravenous or oral gavage. The prodrugs convert to the parent drug molecule in vivo. Therefore, only the parent compound Example 4 was analyzed and quantified in all test samples. […] Furthermore, based on the known comparison of rodent tests to human data (such as known species-to-species PK scaling), this is possible with a lower dosage for therapy in humans.

M. fortuitum = assay: MIC determination (CLSI M24-A2); format: cell-based, Mycobacterium fortuitum
Experimental: as §1, §2

Mycobacteria pathogens = assay: MIC against mycobacteria pathogens, summary over species; format: cell-based, nontuberculous Mycobacterium; conditions: for MIC range: M. intercelleulare, M. fortuitum, M. peregrinum, M. smegmatis, M. massiliense
M. abscessus = assay: MIC determination (CLSI M24-A2); format: cell-based, Mycobacterium abscessus
Experimental: as §1, §2

M. avium = assay: MIC determination (CLSI M24-A2); format: cell-based, Mycobacterium avium
Experimental: as §1, §2

M. intercelleulare = assay: MIC determination (CLSI M24-A2); format: cell-based, Mycobacterium intercelleulare
Experimental: as §1, §2

M. gordonae = assay: MIC determination (CLSI M24-A2); format: cell-based, Mycobacterium gordonae
Experimental: as §1, §2

[4] = tested on: clinical isolates of M. abscessus complex; assay: MBC against clinical isolates of M. abscessus complex; format: cell-based, M. abscessus and M. massiliense; conditions: for Classification: from MBC/MIC ratio
M. massiliense = assay: MIC determination (CLSI M24-A2); format: cell-based, Mycobacterium massiliense
Experimental: as §1, §2

M. scrofulaceum = assay: MIC determination (CLSI M24-A2); format: cell-based, Mycobacterium scrofulaceum
Experimental: as §1, §2

[5] = 20 clinical isolates of M. abscessus complex

In the case of “[(2S,6R)-2-(Aminomethyl)-4-bora-3,5,8-trioxatricyclo[7.3.1.04,13]trideca-1(12),10-dien-6-yl]methanol hydrochloride [Example 4]”, the MIC (M. peregrinum) is reported as 0.125 µg/mL, the MIC [1] is reported as 0.063 µg/mL and the MIC ([1]; clinical isolate A35) is reported as 0.063 µg/mL. The MIC ([1]; clinical isolate A51) was 0.063 µg/mL, the MIC ([1]; clinical isolate A197) was 0.063 µg/mL and the MIC ([1]; clinical isolate A215) was 0.063 µg/mL. It also gave an MIC ([1]; clinical isolate A217) of 0.063 µg/mL, an MIC ([1]; clinical isolate A222) of 0.063 µg/mL and an MIC ([1]; clinical isolate A255) of 0.063 µg/mL. For the same substance, the MIC ([1]; clinical isolate A311) was 0.063 µg/mL, the MIC ([1]; clinical isolate G73) was 0.063 µg/mL and the MIC ([1]; clinical isolate G74) was 0.063 µg/mL. The MIC ([1]; clinical isolate G87) was 0.063 µg/mL, the MIC ([1]; clinical isolate G110) was 0.063 µg/mL and the MIC ([1]; clinical isolate G164) was 0.063 µg/mL. For the same substance, the MIC ([1]; clinical isolate G182) was 0.063 µg/mL, the “AUC ratio (lung/plasma)” value ([2]; analyte Example 4) was 2.39 and the AUClast ([2]; analyte Example 4, lung) was 12822 ng·h/g. It also gave a t1/2 ([2]; analyte Example 4, lung) of 1.46 h, an AUClast ([2]; analyte Example 4, plasma) of 5359 ng·h/mL and a t1/2 ([2]; analyte Example 4, plasma) of 1.87 h. The MIC (M. smegmatis) was 0.125 µg/mL, the “reduction in bacteria in the lungs compared to the untreated groups” value (M. abscessus CIP108297; 10 mg/kg daily subcutaneous, treatment from 3 days after infection, lung CFU at 2 weeks post-infection) was roughly 7.8 log 10 CFU and the “lung pathology, H&E stained tissue sections” value (M. abscessus CIP108297; 2-weeks post-infection, treated group) was “pathologic changes were rare and lung lesions were negligible”. For the same substance, the “organisms in the lungs compared to animals treated with GSK656” value (M. abscessus CIP108297; both 10 mg/kg daily subcutaneous, 2 weeks post-infection) was “reduced markedly”, the AUC ([3]; iv) was 5661 ng·h/mL and the Cmax ([3]; iv) was 6776 ng/mL. It also gave an AUC ([3]; oral) of 856 ng·h/mL, a Cmax ([3]; oral) of 139 ng/mL and an Oral bioavailability ([3]; oral) of 15%. The MIC (M. fortuitum) was 0.125 µg/mL, the “fold more potent than GSK656 (MIC)” value (Mycobacteria pathogens; M. avium and M. intercelleulare) was 4 fold and the MIC range (Mycobacteria pathogens; across M. scrofulaceum, M. gordonae, M. avium, M. abscessus) was 0.063 to 2 µg/mL. The MIC range (Mycobacteria pathogens; rapidly growing mycobacteria (RGM): M. abscessus) was 0.063 to 0.125 µg/mL, the MIC (M. abscessus) was 0.063 µg/mL and the MIC (M. avium) was 2 µg/mL. For the same substance, the MIC (M. intercelleulare) was 2 µg/mL, the MIC (M. gordonae) was 0.5 µg/mL and the MBC [4] was 0.125 µg/mL. The “MBC compared with GSK656” value [4, 5] was “much lower MBC against all isolates tested”, the “bactericidal/bacteriostatic classification over the isolates” value [4, 5] was “bactericidal against half of the isolates” and the MBC ([4]; clinical isolate A35) was 0.25 µg/mL. For the same substance, the Classification ([4]; clinical isolate A35) was “Bactericidal (bactericidal if the MBC/MIC ratio was <4)”, the MBC ([4]; clinical isolate A51) was 0.25 µg/mL and the Classification ([4]; clinical isolate A51) was “Bactericidal (bactericidal if the MBC/MIC ratio was <4)”. The MBC ([4]; clinical isolate A197) was 1 µg/mL, the Classification ([4]; clinical isolate A197) was “Bacteriostatic (bacteriostatic if the ratio was >4)” and the MBC ([4]; clinical isolate A213) was 0.25 µg/mL. For the same substance, the Classification ([4]; clinical isolate A213) was “Bactericidal (bactericidal if the MBC/MIC ratio was <4)”, the MBC ([4]; clinical isolate A215) was 0.5 µg/mL and the Classification ([4]; clinical isolate A215) was “Bacteriostatic (bacteriostatic if the ratio was >4)”. For the same substance, the MBC ([4]; clinical isolate A217) was 0.5 µg/mL, the Classification ([4]; clinical isolate A217) was “Bacteriostatic (bacteriostatic if the ratio was >4)” and the MBC ([4]; clinical isolate A222) was 0.25 µg/mL. For the same substance, the Classification ([4]; clinical isolate A222) was “Bactericidal (bactericidal if the MBC/MIC ratio was <4)”, the Classification ([4]; clinical isolate A232) was “Bactericidal (bactericidal if the MBC/MIC ratio was <4)” and the MBC ([4]; clinical isolate A255) was 0.25 µg/mL. The Classification ([4]; clinical isolate A255) was “Bactericidal (bactericidal if the MBC/MIC ratio was <4)”, the MBC ([4]; clinical isolate A268) was 2 µg/mL and the Classification ([4]; clinical isolate A268) was “Bacteriostatic (bacteriostatic if the ratio was >4)”. The MBC ([4]; clinical isolate A274) was 2 µg/mL, the Classification ([4]; clinical isolate A274) was “Bacteriostatic (bacteriostatic if the ratio was >4)” and the MBC ([4]; clinical isolate A311) was 0.25 µg/mL. The Classification ([4]; clinical isolate A311) was “Bactericidal (bactericidal if the MBC/MIC ratio was <4)”, the MBC ([4]; clinical isolate A353) was 0.25 µg/mL and the Classification ([4]; clinical isolate A353) was “Bactericidal (bactericidal if the MBC/MIC ratio was <4)”. For the same substance, the MBC ([4]; clinical isolate G73) was 1 µg/mL, the Classification ([4]; clinical isolate G73) was “Bacteriostatic (bacteriostatic if the ratio was >4)” and the MBC ([4]; clinical isolate G74) was 1 µg/mL. For the same substance, the Classification ([4]; clinical isolate G74) was “Bacteriostatic (bacteriostatic if the ratio was >4)”, the MBC ([4]; clinical isolate G87) was 0.5 µg/mL and the Classification ([4]; clinical isolate G87) was “Bacteriostatic (bacteriostatic if the ratio was >4)”. For the same substance, the MBC ([4]; clinical isolate G104) was 0.25 µg/mL, the Classification ([4]; clinical isolate G104) was “Bactericidal (bactericidal if the MBC/MIC ratio was <4)” and the MBC ([4]; clinical isolate G110) was 1 µg/mL. The Classification ([4]; clinical isolate G110) was “Bacteriostatic (bacteriostatic if the ratio was >4)”, the MBC ([4]; clinical isolate G164) was 0.25 µg/mL and the Classification ([4]; clinical isolate G164) was “Bactericidal (bactericidal if the MBC/MIC ratio was <4)”. For the same substance, the MBC ([4]; clinical isolate G182) was 1 µg/mL, the Classification ([4]; clinical isolate G182) was “Bacteriostatic (bacteriostatic if the ratio was >4)” and the MIC (M. massiliense) was 0.063 µg/mL. For the same substance, the MIC (M. scrofulaceum) was 0.25 µg/mL.
